# Experimental data from patent US9469650B2, “Melampomagnolide B derivatives” (BOARD OF TRUSTEES OF THE UNIVERSITY OF ARKANSAS, priority 2013, dated 2016).
# Read-outs that look alike come from different tables or passages of the source.
# How the values were obtained:
# OVCAR-3 = experiment: panel of 60 human tumor cell lines, growth inhibition (Ovarian Cancer); conditions: OVCAR-3
# A498 = experiment: panel of 60 human tumor cell lines, growth inhibition (Renal Cancer); conditions: A498
# U251 = experiment: panel of 60 human tumor cell lines, growth inhibition (CNS Cancer); conditions: U251
# NCI-H226 = experiment: panel of 60 human tumor cell lines, growth inhibition (Non-Small Cell Lung Cancer); conditions: NCI-H226
# K-562 = experiment: panel of 60 human tumor cell lines, growth inhibition (Leukemia); conditions: K-562
# PC-3 = experiment: panel of 60 human tumor cell lines, growth inhibition (Prostate Cancer); conditions: PC-3
# UACC-257 = experiment: panel of 60 human tumor cell lines, growth inhibition (Melanoma); conditions: UACC-257
# 786-0 = experiment: panel of 60 human tumor cell lines, growth inhibition (Renal Cancer); conditions: 786-0
# NCI-H460 = experiment: panel of 60 human tumor cell lines, growth inhibition (Non-Small Cell Lung Cancer); conditions: NCI-H460
# SK-MEL-5 = experiment: panel of 60 human tumor cell lines, growth inhibition (Melanoma); conditions: 8K-MEL-5
# HOP-62 = experiment: panel of 60 human tumor cell lines, growth inhibition (Non-Small Cell Lung Cancer); conditions: HOP-62
# MOLT-4 = experiment: panel of 60 human tumor cell lines, growth inhibition (Leukemia); conditions: MOLT-4
# MDA-MB-468 = experiment: panel of 60 human tumor cell lines, growth inhibition (Breast Cancer); conditions: MDA-MB-468
# DU-145 = experiment: panel of 60 human tumor cell lines, growth inhibition (Prostate Cancer); conditions: DU-145
# HS 578T = experiment: panel of 60 human tumor cell lines, growth inhibition (Breast Cancer); conditions: HS 578T
# T-47D = experiment: as above; conditions: T-47D
# HOP-92 = experiment: panel of 60 human tumor cell lines, growth inhibition (Non-Small Cell Lung Cancer); conditions: HOP-92
structure (smiles),measurement,setting,value
C=C1C(=O)O[C@H]2[C@H]1CC/C(COC(=O)NCCO)=C\CC[C@@]1(C)O[C@@H]21 [JVM 2-50],Percent Growth,OVCAR-3; Log10 Concentration −4.0,−93%
same,Percent Growth,OVCAR-3; Log10 Concentration −5.0,40%
same,Percent Growth,OVCAR-3; Log10 Concentration −6.0,103%
same,Percent Growth,OVCAR-3; Log10 Concentration −7.0,106%
same,Percent Growth,OVCAR-3; Log10 Concentration −8.0,103%
same,GI50,OVCAR-3; NCI five dose,6.27 µM
same,TGI,OVCAR-3; NCI five dose,1.99E−5
same,Percent Growth,A498; Log10 Concentration −4.0,−25%
same,Percent Growth,A498; Log10 Concentration −5.0,58%
same,Percent Growth,A498; Log10 Concentration −6.0,60%
same,Percent Growth,A498; Log10 Concentration −7.0,68%
same,Percent Growth,A498; Log10 Concentration −8.0,74%
same,GI50,A498; NCI five dose,12.4 µM
same,TGI,A498; NCI five dose,5.01E−5
same,Percent Growth,U251; Log10 Concentration −4.0,−26%
same,Percent Growth,U251; Log10 Concentration −5.0,94%
same,Percent Growth,U251; Log10 Concentration −6.0,91%
same,Percent Growth,U251; Log10 Concentration −7.0,95%
same,Percent Growth,U251; Log10 Concentration −8.0,97%
same,GI50,U251; NCI five dose,23.3 µM
same,TGI,U251; NCI five dose,6.08E−5
same,Percent Growth,NCI-H226; Log10 Concentration −4.0,−37%
same,Percent Growth,NCI-H226; Log10 Concentration −5.0,67%
same,Percent Growth,NCI-H226; Log10 Concentration −6.0,91%
same,Percent Growth,NCI-H226; Log10 Concentration −7.0,96%
same,Percent Growth,NCI-H226; Log10 Concentration −8.0,93%
same,GI50,NCI-H226; NCI five dose,14.6 µM
same,TGI,NCI-H226; NCI five dose,4.43E−5
same,Percent Growth,K-562; Log10 Concentration −4.0,−25%
same,Percent Growth,K-562; Log10 Concentration −5.0,23%
same,Percent Growth,K-562; Log10 Concentration −6.0,100%
same,Percent Growth,K-562; Log10 Concentration −7.0,110%
same,Percent Growth,K-562; Log10 Concentration −8.0,119%
same,GI50,K-562; NCI five dose,4.51 µM
same,TGI,K-562; NCI five dose,3.02E−5
same,Percent Growth,PC-3; Log10 Concentration −4.0,−21%
same,Percent Growth,PC-3; Log10 Concentration −5.0,94%
same,Percent Growth,PC-3; Log10 Concentration −6.0,97%
same,Percent Growth,PC-3; Log10 Concentration −7.0,93%
same,Percent Growth,PC-3; Log10 Concentration −8.0,98%
same,GI50,PC-3; NCI five dose,24.1 µM
same,TGI,PC-3; NCI five dose,6.57E−5
same,Percent Growth,HL-60(TB); Log10 Concentration −4.0,−48%
same,Percent Growth,HL-60(TB); Log10 Concentration −5.0,9%
same,Percent Growth,HL-60(TB); Log10 Concentration −6.0,111%
same,Percent Growth,HL-60(TB); Log10 Concentration −7.0,109%
same,Percent Growth,HL-60(TB); Log10 Concentration −8.0,106%
same,GI50,HL-60(TB); NCI five dose,3.99 µM
same,CC50,"HL-60(TB); read-out: LC50, NCI five dose",> 100 µM
same,Percent Growth,UACC-257; Log10 Concentration −4.0,−73%
same,Percent Growth,UACC-257; Log10 Concentration −5.0,44%
same,Percent Growth,UACC-257; Log10 Concentration −6.0,65%
same,Percent Growth,UACC-257; Log10 Concentration −7.0,90%
same,Percent Growth,UACC-257; Log10 Concentration −8.0,95%
same,GI50,UACC-257; NCI five dose,7 µM
same,TGI,UACC-257; NCI five dose,2.37E−5
same,Percent Growth,786-0; Log10 Concentration −4.0,−74%
same,Percent Growth,786-0; Log10 Concentration −5.0,59%
same,Percent Growth,786-0; Log10 Concentration −6.0,97%
same,Percent Growth,786-0; Log10 Concentration −7.0,97%
same,Percent Growth,786-0; Log10 Concentration −8.0,91%
same,GI50,786-0; NCI five dose,11.7 µM
same,TGI,786-0; NCI five dose,2.78E−5
same,Percent Growth,NCI-H460; Log10 Concentration −4.0,8%
same,Percent Growth,NCI-H460; Log10 Concentration −5.0,98%
same,Percent Growth,NCI-H460; Log10 Concentration −6.0,98%
same,Percent Growth,NCI-H460; Log10 Concentration −7.0,100%
same,Percent Growth,NCI-H460; Log10 Concentration −8.0,100%
same,GI50,NCI-H460; NCI five dose,34 µM
same,TGI,NCI-H460; NCI five dose,>1.00E−4
same,Percent Growth,SK-MEL-5; Log10 Concentration −4.0,−34%
same,Percent Growth,SK-MEL-5; Log10 Concentration −5.0,84%
same,Percent Growth,SK-MEL-5; Log10 Concentration −6.0,100%
same,Percent Growth,SK-MEL-5; Log10 Concentration −7.0,100%
same,Percent Growth,SK-MEL-5; Log10 Concentration −8.0,102%
same,GI50,SK-MEL-5; NCI five dose,19.5 µM
same,TGI,SK-MEL-5; NCI five dose,5.15E−5
same,Percent Growth,HOP-62; Log10 Concentration −4.0,9%
same,Percent Growth,HOP-62; Log10 Concentration −5.0,88%
same,Percent Growth,HOP-62; Log10 Concentration −6.0,92%
same,Percent Growth,HOP-62; Log10 Concentration −7.0,90%
same,Percent Growth,HOP-62; Log10 Concentration −8.0,88%
same,GI50,HOP-62; NCI five dose,30.4 µM
same,TGI,HOP-62; NCI five dose,>1.00E−4
same,Percent Growth,MOLT-4; Log10 Concentration −4.0,−39%
same,Percent Growth,MOLT-4; Log10 Concentration −5.0,43%
same,Percent Growth,MOLT-4; Log10 Concentration −6.0,103%
same,Percent Growth,MOLT-4; Log10 Concentration −7.0,114%
same,Percent Growth,MOLT-4; Log10 Concentration −8.0,106%
same,GI50,MOLT-4; NCI five dose,7.65 µM
same,Percent Growth,MDA-MB-468; Log10 Concentration −4.0,−67%
same,Percent Growth,MDA-MB-468; Log10 Concentration −5.0,−12%
same,Percent Growth,MDA-MB-468; Log10 Concentration −6.0,67%
same,Percent Growth,MDA-MB-468; Log10 Concentration −7.0,91%
same,Percent Growth,MDA-MB-468; Log10 Concentration −8.0,98%
same,GI50,MDA-MB-468; NCI five dose,1.64 µM
same,TGI,MDA-MB-468; NCI five dose,7.01E−6
same,Percent Growth,DU-145; Log10 Concentration −4.0,−92%
same,Percent Growth,DU-145; Log10 Concentration −5.0,60%
same,Percent Growth,DU-145; Log10 Concentration −6.0,107%
same,Percent Growth,DU-145; Log10 Concentration −7.0,106%
same,Percent Growth,DU-145; Log10 Concentration −8.0,108%
same,GI50,DU-145; NCI five dose,11.6 µM
same,TGI,DU-145; NCI five dose,2.47E−5
same,Percent Growth,HS 578T; Log10 Concentration −4.0,22%
same,Percent Growth,HS 578T; Log10 Concentration −5.0,82%
same,Percent Growth,HS 578T; Log10 Concentration −6.0,91%
same,Percent Growth,HS 578T; Log10 Concentration −7.0,88%
same,Percent Growth,HS 578T; Log10 Concentration −8.0,92%
same,GI50,HS 578T; NCI five dose,34.3 µM
same,TGI,HS 578T; NCI five dose,>1.00E−4
same,Percent Growth,T-47D; Log10 Concentration −4.0,−54%
same,Percent Growth,T-47D; Log10 Concentration −5.0,16%
same,Percent Growth,T-47D; Log10 Concentration −6.0,69%
same,Percent Growth,T-47D; Log10 Concentration −7.0,95%
same,Percent Growth,T-47D; Log10 Concentration −8.0,89%
same,GI50,T-47D; NCI five dose,3.46 µM
same,TGI,T-47D; NCI five dose,1.71E−5
same,Percent Growth,HOP-92; Log10 Concentration −4.0,−88%
same,Percent Growth,HOP-92; Log10 Concentration −5.0,13%
same,Percent Growth,HOP-92; Log10 Concentration −6.0,94%
same,Percent Growth,HOP-92; Log10 Concentration −7.0,86%
same,Percent Growth,HOP-92; Log10 Concentration −8.0,90%
same,GI50,HOP-92; NCI five dose,3.49 µM
same,TGI,HOP-92; NCI five dose,1.35E−5
